Measured values taken from patent publication US11357817B2, “Immunoproteasome inhibitor” (The Regents of the University of California, priority 2017, dated 2022).

Experiments:
[1] = test system: HepG2 cells; assay: HepG2 cytotoxicity assay; format: cell-based; conditions: Homo sapiens
Procedure: The liver-stage and HepG2 toxicity assays were performed as previously reported (35). Briefly, HepG2-A16-CD81EGFP, human hepatocarcinoma HepG2 cells stably transformed to express the tetraspanin CD81 receptor (36, 37) and thus susceptible to P. berghei infection, were cultured at 37° C. in 5% CO2 in DMEM (Life Technologies, Calif.) supplemented with 10% FBS, 0.29 mg/ml glutamine, 100 unit penicillin and 100 μg/ml streptomycin. For both the P. berghei-luciferase and HepG2 cytotoxicity assays, 3×10^3 of the HepG2-A16-CD81EGFP cells in 5 μl of assay medium (DMEM without Phenol Red (Life Technologies, Calif.), 5% FBS, and 5× Pen Strep Glutamine (Life Technologies, Calif.)) at concentration 6×10^5 cells/ml were seeded in 1536-well plates (Greiner BioOne white solid bottom custom GNF mold) 20-26 hours prior to the actual infection. 18 hours prior to infection, 50 nl of compound in DMSO (0.5% final DMSO concentration per well) were transferred with Acoustic Transfer System (ATS) (Biosero) into the assay plates. Atovaquone (12-point serial dilution starting at 10 μM) and Puromycin (12-point serial dilution starting at 10 μM) were used as positive controls for Pb. liver stage assay and HepG2 cytotoxicity respectively. 0.5% DMSO was used as negative control for the both assays.
An. stephensi mosquitoes, infected with P. berghei-luciferase, were provided by the New York University Insectary. P. berghei-luciferase sporozoites were freshly dissected from the infected A. stephensi mosquito salivary glands, filtered twice through a 20 μm nylon net filter using Steriflip Vacuum-Driven Filtration System (Millipore), counted in a hemocytometer, and then adjusted to final concentration 200 sporozoites per μl in the assay media. […] The HepG2-A16-CD81EGFP cell designated for toxicity studies were left uninfected, with 5 ul of additional assay media added to each well to maintain equal concentrations of compounds with P. berghei-luciferase infected plates. After incubation at 37° C. for 48 hours the exoerythrocytic growth and HepG2-A16-CD81EGFP cell viability were quantified by a bioluminescence measurement.
The HepG2 cytotoxicity was assessed by removing the media through an inverted spin of the plates at 150 g for 30 s and addition of 2 μL of CellTiterGlo reagent (Promega diluted 1:2 with deionized water) per well using the MicroFlo liquid handler (BioTek). Immediately after addition of the luminescence reagent, the plates were vortexed for 10 s and read with an EnVision Multilabel reader (PerkinElmer). IC50 values were obtained as above.

[2] = test system: P. falciparum Stage V gametocytes; assay: Compound sensitivity testing of Stage V gametocytes; format: cell-based; conditions: Plasmodium falciparum, read-out: IC50 against stage V gametocytes
Procedure: Gametocytes were induced in NF54 or derived clones as previously described (33). Asexual blood stage parasites were synchronized at ring stage using 5% sorbitol for three consecutive life cycles. Once the culture reached a parasitemia of 8-10% ring stages, half of the media was exchanged to stress the parasites. Twenty-four hours later, the culture media was exchanged with fresh media and the culture was shaken overnight. The following day, the culture was treated with 50 mM N-acetyl-glucosamine (NAG) (in complete media), and new media containing NAG was added every day for 10 days to clear remaining asexual blood stage parasites and enrich for gametocytes. After 10 days, complete media without NAG was provided each day for the last two days of gametocyte development in order to obtain ˜1% gametocytemia with >80% Stage V specificity and no visible asexual blood stage parasites (assessed via Giemsa-stained thin smears). Drug Sensitivity of Stage V gametocytes were then determined using a published protocol using mitotracker red (34). Each compound was tested in technical triplicate in a ten-point concentration curve prepared by three-fold dilution starting at 12.5 μM. At least three independent experiments were carried out for EC50 determination and puromycin was used as a positive control. […]

[3] = test system: 20S Plasmodium proteasome (Pf20S) β1 subunit; assay: Proteasome activity assay, Pf20S β1 (z-LLE-AMC); format: biochemical, Plasmodium falciparum; conditions: 450 nM compound; proteasome not named
Procedure: (§1) Asynchronous P. falciparum cultures were grown up to 4-5% parasitemia, in 300 mL of RPMI media at 5.0% hematocrit. […] The PBS was removed and lysis buffer (0.15% saponin in PBS) was added on ice in 10 pellet volumes. Upon lysis of red blood cells, indicated by a clear red supernatant, the lysed cultures were centrifuged at 3200×g for 12 minutes at 4° C. The supernatant was removed by aspiration and the cells were washed twice using chilled PBS in microcentrifuge tubes. The cell pellets were then incubated on ice for 1 hour with occasional vortexing in a buffer consisting of 20 mM Tris-HCl pH 7.5, 5 mM MgCl2, 1 mM DTT, 100 μM E-64 and 1 mM AEBSF. This sample was then subjected to 3 rounds of freezing (−80° C.) and thawing (37° C.) and centrifugation at 6000×g for 10 min. The supernatant containing soluble P. falciparum protein was quantified by the BCA method (Pierce).
(§2) P. falciparum proteasome was enriched by two-chromatographic steps reported previously (10). […] The AMC fluorophore release was monitored at Ex 340/Em 465 nm at 24° C. using a Synergy HTX multi-mode reader (Biotek). […] Proteins were eluted using 20 mM Tris-HCl pH 7.5, 100 mM NaCl, 10% glycerol and 1 mL fractions were collected, evaluated for protease activity and pooled. […]

[4] = molecular target: Pf20S (Plasmodium falciparum, UniProt A0A5K1K7U1+Q8IJT1); assay: Calculation of inhibition constants (inactivation kinetics), Pf20S; format: biochemical
Chain of Pf20S (A0A5K1K7U1 entry or part of it): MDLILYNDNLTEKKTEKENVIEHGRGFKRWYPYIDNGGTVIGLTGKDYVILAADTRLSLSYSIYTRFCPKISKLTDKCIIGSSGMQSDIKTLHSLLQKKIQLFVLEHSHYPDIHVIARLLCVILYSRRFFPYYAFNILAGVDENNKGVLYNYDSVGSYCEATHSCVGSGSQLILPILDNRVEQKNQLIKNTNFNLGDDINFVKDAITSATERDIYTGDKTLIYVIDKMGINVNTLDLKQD
Chain of Pf20S (Q8IJT1 entry or part of it): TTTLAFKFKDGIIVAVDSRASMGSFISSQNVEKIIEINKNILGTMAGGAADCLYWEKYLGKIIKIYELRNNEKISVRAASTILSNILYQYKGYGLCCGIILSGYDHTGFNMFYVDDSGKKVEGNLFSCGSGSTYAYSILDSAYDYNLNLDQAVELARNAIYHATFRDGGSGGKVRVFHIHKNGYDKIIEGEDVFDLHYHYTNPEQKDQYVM
Procedure: (§3) The rate of AMC release was calculated in the presence of serial dilution of each inhibitor. The rate of product formation were calculated at 30 min intervals for 4 hours, and normalized to activity DMSO control to calculate inactivation curves. Kobs values for each inhibitor concentration were calculated from inactivation curves, and inhibition constants KI and kinact were calculated by non-linear regression of Kobs and inhibitor concentration using GraphPad Prism 6 software.

[5] = molecular target: T1, c20S (Homo sapiens, UniProt P20618+P28074); assay: Calculation of inhibition constants (inactivation kinetics), c20S; format: biochemical
T1 construct: purchased Boston Biochem
Procedure: as §3

[6] = test system: 20S Plasmodium proteasome (Pf20S) β2 subunit; assay: Proteasome activity assay, Pf20S β2 (z-LRR-AMC); format: biochemical; conditions: 450 nM compound; proteasome not named
Procedure: as §1, §2

Work on `CCCCCC(=O)N[C@@H](C(=O)N[C@@H](CCCC)C(=O)N[C@@H](CC(C)C)C(=O)[C@@]1(C)CO1)C(C)C` [Analog 18, (S)-2-((R)-2-hexanamido-3-methylbutanamido)-N—((S)-4-methyl-1-((R)-2-methyloxiran-2-yl)-1-oxopentan-2-yl)hexanamide] yielded an IC50 [1] of 1240 ± 274 nM, an IC50 [2] of 130 nM and a β1 activity reduced [3] of 6%. The Ki ([4]; Pf20S) was 372 nM, the “reduction in potency to the Pf20S proteasome” value ([4]; kinact/Ki, 18 versus 1) was 10 fold and the Ki ([5]; c20S) was 39200 nM. For the same compound, the “loss in potency to the human c20S proteasome” value ([5]; kinact/Ki, 18 versus 1) was 100 fold and the β2 activity reduced [6] was 9%.
